In US20120295893A1, “COMPOSITIONS AND METHODS OF COUNTERACTING RESIDUAL SEDATIVE EFFECTS OF SLEEP/ HYPNOTIC DRUGS” (COERULEUS LTD., priority 2009, published 2012):
“And” between values parts separate entries of the source, which are not always exact repeats. Identical values can stand only once.

Legend:
[1] = system: sleep/hypnotic effect of zolpidem or brotizolam; test: Clinical study: immediate Word Recall Test (iWRT); conditions: Baseline sleep (after hypnotic, before oral spray)
[2] = Clinical study: vital signs and safety assessments; conditions: Baseline sleep (after hypnotic, before oral spray); for Pulse rate: 10 subjects per hypnotic
[3] = system: sleep/hypnotic effect of zolpidem or brotizolam; test: Clinical study: digit symbol substitution test (DSST); conditions: Baseline sleep (after hypnotic, before oral spray)
[4] = system: sleep/hypnotic effect of zolpidem or brotizolam; test: Clinical study: Profile Of Mood States (POMS) Brief form; conditions: Baseline sleep (after hypnotic, before oral spray)
[5] = system: sleep/hypnotic effect of zolpidem or brotizolam; test: Clinical study: Visual Analogue Scale (sleepiness/vigilance, ability to focus, effectiveness); conditions: Baseline sleep (after hypnotic, before oral spray)
[6] = system: Sprague-Dawley™ (SD) rats; test: Preliminary phase: induction of 'Sleep' by IV diazepam (dose finding); conditions: for mortality after diazepam injection: FDC = Found Dead in the Cage
[7] = system: diazepam-induced sedative-hypnotic effects; test: Main phase: Sleeping Time (regaining of Righting Reflex) after diazepam induction; assay type: in vivo, rat; conditions: IV, two administrations at 2 min interval after diazepam
Method: (§1) The main phase consisted of 4 groups of n=8 male and female SD rats/group. Induction of sedative-hypnotic effects, as measured by Sleeping Time and locomotor activity, was carried out by two intravenous injections of diazepam at an interval of approximately 2 minutes. The Test, Reference and Control Items were administered twice at interval of 2 minutes as well, about 5 minutes after the second dose of diazepam. Both Test Items FLUMUP-F22 (F22, Table 26 below) and FLUMUP-F26 (F26, Table 26 below) were administered by the sublingual route at a constant dose volume of 0.1 ml/animal per administration. An additional group was administered with FLUMUP Placebo under identical experimental conditions and served as a Control group. A fourth group was subjected to IV injection of the Reference Item under identical experimental conditions. Animals were placed in the activity cage immediately following arousal from ‘Sleep’ or 10 minutes post the second dose of the respective treatment if arousal was not evident.
Males were injected with an initial dose level of 15 mg/kg and approximately 2 minutes later an addition of 5 mg/kg was administered. […]
Sleeping time was determined for all animals.
Evaluation was based on the relative recorded changes in the measured Sleeping Time and locomotor activity, obtained from the Test & Reference Items-treated animals vs. those of the Control Item group. […]

[8] = system: diazepam-induced sedative-hypnotic effects; test: Main phase: locomotor activity in activity cage after diazepam induction; assay type: in vivo, rat
Method: as §1
Males were injected with an initial dose level of 15 mg/kg and approximately 2 minutes later an addition of 5 mg/kg was administered. Females were injected with an initial dose level of 20 mg/kg and approximately 2 minutes later an addition of 5 mg/kg.
(i) The Test and Control Items were administered by the sublingual route twice at an interval of approximately 2 minutes about 5 minutes post the second injection of diazepam. (ii) The Reference Item flumazenil USP was injected twice intravenously at an interval of approximately 2 minutes about 5 minutes post the second injection of diazepam. The Test, Reference and Control Items were administered at a constant dose volume of 0.1 ml/animal per administration over approximately 15 seconds.
Each rat was placed in the center of a special designed commercial activity cage, measuring 40×40×46 cm (TruScan Photo Beam Activity System-Coulbourn Instruments, Allentown, Pa., USA) for a duration of 15 minutes.
Evaluation was based on the relative recorded changes in the measured Sleeping Time and locomotor activity, obtained from the Test & Reference Items-treated animals vs. those of the Control Item group. Data analysis of all measurable parameters was performed by the use of the following methods in order to determine significance of treatment effects: Software: GraphPad Instat®—Version 3.02 (Statistical Method: 1-Way ANOVA; Dunnett Multiple Comparisons Test for locomotor activity parameters; Kruskal-Wallis Test for Sleeping Time data) Microsoft” Excel 2000.

[9] = in vivo, po; cited from earlier work

Structure (SMILES) | iWRT [1] | Diastolic BP [2] | Systolic BP [2] | Pulse rate [2] | DSST [3] | POMS- fatigue [4] | POMS-Alertness [4] | Effectiveness [5] | Focus ability [5] | Vigilance [5] | further results
Cc1nnc2n1-c1sc(Br)cc1C(c1ccccc1Cl)=NC2 [Brotizolam] | 7.6 ± 1.3 | 69.0 ± 2.8 | 116.9 ± 4.8 | 69.8 ± 1.8 | 76.3 ± 7.7 | 7.2 ± 1.2 | 4.3 ± 1.0 | 2.3 ± 0.3 | 2.4 ± 0.4 | 2.3 ± 0.4 | 
CN1C(=O)CN=C(c2ccccc2)c2cc(Cl)ccc21 [Diazepam] |  |  |  |  |  |  |  |  |  |  | additional duration of 'Sleep' after supplement dose ([6]; female rat, 20 mg/kg then supplement 5 mg/kg IV): 1180 s; mortality after diazepam injection ([6]; female rat, single dose 25 mg/kg IV, 25 mg/kg): died immediately following injection and FDC; mortality after diazepam injection ([6]; female rat, single dose 25 mg/kg IV, listed as diazepam, 25 mg/kg): death; duration of induced 'Sleep' ([6]; female rats, diazepam 20 mg/kg IV, individual animals): 240 s and 180 s; additional duration of 'Sleep' after supplement dose ([6]; male rat, 15 mg/kg then supplement 5 mg/kg IV): 850 s; duration of induced 'Sleep' ([6]; male rat, diazepam 10 mg/kg IV, single animal): 46 s; duration of induced 'Sleep' ([6]; male rat, diazepam 15 mg/kg IV, single animal): 130 s; duration of induced 'Sleep' ([6]; male rat, diazepam 20 mg/kg IV, single animal): 1700 s; mortality after diazepam injection ([6]; male rat, single dose 20 mg/kg IV, 20 mg/kg): died immediately following injection and FDC; mortality after diazepam injection ([6]; male rat, single dose 20 mg/kg IV, listed as diazepam, 20 mg/kg): death
CCOC(=O)c1ncn2c1CN(C)C(=O)c1cc(F)ccc1-2 [Reference Item] |  |  |  |  |  |  |  |  |  |  | regaining of Righting Reflex (Sleeping Time) [7]: regained their righting reflex very shortly following injection; area of the cage where rats moved or stayed ([8]; Area 1 peripheries (normal behavior), Area 2 central, FIG. 11): stayed in the central area of the cage; locomotor activity ([8]; after regaining righting reflex, males and females): very low and similar to that of the control animals; total distance versus Control group ([8]; female rats, 15 min session, diazepam 20+5 mg/kg IV): No statistical significant difference; mean group time spent in the extent of the activity cage versus controls ([8]; male rats): relatively higher; total distance, mean group values versus Control group ([8]; male rats, 15 min session, diazepam 15+5 mg/kg IV): only one out of the four males exhibited higher values
Cc1ccc(-c2nc3ccc(C)cn3c2CC(=O)N(C)C)cc1 [Zolpidem] | 4.1 ± 0.3 | 71.4 ± 1.9 | 119.5 ± 4.0 | 77.5 ± 3.5 | 62.5 ± 3.6 | 9.3 ± 1.4 | 1.9 ± 1.0 | 1.5 ± 0.4 | 1.5 ± 0.4 | 1.4 ± 0.3 | oral bioavailability [9]: 70%
